Some results are limits rather than exact numbers.

Series [1] can be described thus: pKa. The note with it: method not stated. It is filed as physicochemical.
Series [2] in a line: Loading of ATR inhibitors into TEA-SOS liposomes and liposome characterization. It is filed as physicochemical. The note with it: for Loading efficiency (%) / Drug/lipid ratio after loading: TEA-SOS liposomes; for Loading efficiency (%): Compound 1 at ratio before loading 379; for Drug/lipid ratio after loading: input ratio before loading (Compound 1: 379); for Liposome size, (mean ± SD) nm: liposomes loaded with the ATR inhibitor. The method, then:
Sodium sucrose octasulfate (equivalent weight 144.8) is a sodium salt of sucrose derivate in which all hydroxyl groups have formed sulfuric acid esters. Sixty gram of sucrose octasulfate (SOS) sodium salt were dissolved in 150 ml of di water, heated with shaking (swirling) of a 50° C. water bath. The solution was passed through a column packed with sulfonated polystyrene divinylbenzene copolymer cation exchange resin beads (Dowex 50Wx8-100-200 mesh, Dow Chemical Co.). […] The eluent was monitored using a conductivity detector. The SOS fraction was collected corresponding to conductivity peak and immediately titrated with neat triethylamine (TEA) solution to pH 6-6.5. The solution was analyzed for residual sodium by potentiometry using a sodium-sensitive electrode and for SOS concentration using a refractometer. The solution having residual sodium less than 0.25% was diluted with di water to final SOS concentration 1.1 M and then sterile-filtered using Millipore 0.22 μm Steri-Top filter.
Cholesterol (Chol) was purchased from Avanti Polar Lipids, Alabaster, Ala., USA, hydrogenated soy phosphocholine (HSPC) and methoxy-poly(ethylene glycol)-1,2-distearoyl-sn-glyceryl (PEG2000-DSG) were obtained from Lipoid GmbH, Ludwigshafen, Germany.
Chol, HSPC and PEG2000-DSG were co-dissolved in 100% ethanol (200-proof, Sigma cat #: 459828) at a molar ratio of 3:2:0.15 at 65° C. The solution of TEA-SOS (10 times the volume of added ethanol) was mixed with the lipid solution at 60-65° C. and stirred at this temperature until a homogeneous milky suspension of multilamellar vesicles was formed. This suspension was extruded 3 times through 5 stacked polycarbonate track-etched filters (Corning Nuclepore) with the pore size of 100 nm using argon pressure extruder (Lipex Biomembranes) at 60-65° C., and resulting unilamellar liposomes were quickly chilled in ice and then stored at 4-6° C. before use. Concentration of phospholipids was measured by phosphate assay and particle diameter was recorded on a Malvern Nanosizer.
Prior to drug loading, the TEA-SOS gradient was created by removing excess of un-trapped TEA-SOS using gel-chromatography (Sepharose CL-4B, Pharmacia). Osmolarity of liposomes was balanced using 50% dextrose solution. Final dextrose concentration was 15%.
ATR inhibitors were dissolved in 15% dextrose solutions in di water by titration with 1 M HCl and heating at 45° C. and then filtered with 0.2 micron NALGENE 13 mm Syringe Filters. Drug concentration in the solution was detected by HPLC. […]
The liposome-drug mixture was incubated with occasional agitation for 30 minutes at 65° C. The incubation mixture was quickly cooled down and incubated for 10 minutes at 0° C., then allowed to attain ambient temperature. Un-encapsulated drug was removed by gel chromatography on Sephadex G-25 (Amersham Pharmacia) eluted with HBS-6.5 buffer (5 mM 2-(4-(2-hydroxyethyl)-piperazino)-ethylsulfonic acid (HEPES), 144 mM NaCl, pH 6.5). Liposome fractions eluted in the void volume were combined, sterilized by 0.2 micron filtration, and stored at 4-6° C. before use. The liposomes were characterized by lipid concentration, drug concentration, and particle size (Table 2).

The target in series [3] is ATR/ATRIP(h) (Homo sapiens (Human), UniProt Q13535). Put plainly: Eurofins ATR/ATRIP HTRF assay, p53 Ser15 phosphorylation. It is filed as biochemical. Set-up: key to Top / Bottom: % of DMSO positive control activity. The note with it: ATP 10 μM; for Hill: four parameter logistic fit; for Bottom / Top: four parameter logistic fit of % control activity. The method, then:
An EC50 determination was conducted for the supplied set of compounds against the kinase ATR/ATRIP(h), using a linear enzyme concentration in the Eurofins ATR/ATRIP HTRF assay using GST tagged full length p53 as the substrate.
ATR/ATRIP phosphorylation of p53 on Ser15 was measured via formation of an energy transfer complex consisting of a Europium-labelled anti-phospho Ser15 p53 antibody and an anti-GST-d2 antibody. All data points were performed in duplicate with DMSO controls and EDTA blanks.
ATR/ATRIP(h) was pre-diluted in 25 mM HEPES pH 8.0, 0.01% Brij-35, 1% Glycerol, 5 mM DTT, 1 mg/mL BSA and assayed in 25 mM HEPES pH 8.0, 0.01% Brij-35, 1% Glycerol, 10 mM MnCl2 using 30 nM GST, cMyc p53-(hu,FL) as the substrate. The reaction was initiated with the addition of ATP to a final concentration of 10 μM.
The individual replicates were expressed in terms of the % of the DMSO positive control activity. The mean activity (% control) of each inhibitor concentration was plotted against the inhibitor concentration, and EC50 values were determined using […] PRISM.
The data expressed as % control activity were plotted against inhibitor concentration, and fitted to a four parameter logistic using […] PRISM. Graphs for each compound are shown alongside the data in the accompanying Excel report.
For orientation: Time-resolved FRET reads energy transfer from a long-lived donor to a nearby acceptor.

The target in series [4] is ATM(h) (Homo sapiens (Human), UniProt Q13315). The series is described as follows: ATM activity, […] KINASEPROFILER
It is filed as biochemical. The note with it: estimated IC50. The source says:
Estimated IC50 values are as follows (obtained using […] KINASEPROFILER): […]

Series [5] relates to total and phospho-ATR (S428), phospho-CHK1 (S317 and S345) in DMS-114 cells. Put plainly: Western blot of total and phospho-ATR, phospho-CHK1 in DMS-114 cells. Type of series: cell-based. The method, then:
Whole cell protein lysates were generated after 1, 3, 6 and 24 hours using a 2% SDS containing cell lysis buffer and stored at −80° C. until all samples were collected and run together at the same time for the WesternBlot analysis. The following proteins and phosphoproteins of interest were detected by antibodies purchased from Cell Signaling Technology (see methods and materials part below): total and phospho-ATR (S428), phospho-CHK1 (S317 and S345), γH2AX, beta-actin.
All target and phospho-specific antibodies were purchased from Cell Signaling and/or Epitomics and were used at 1:1000 dilutions. A list of all antibodies is available in Table 6. Standard antibody based Western blot and immunohistochemistry protocols were used. Briefly, 2% SDS based cell lysis buffer was used to collect whole cell lysate for Western Blotting. Secondary antibodies and staining protocols were purchased and followed regarding LiCor Biosciences and/or BD Bioscience.
Cells were grown and treated in a 6 cm dish scale. To harvest cells, medium was removed and quickly replaced by ice cold PBS. PBS was then replaced with 250 μL of 2% SDS lysis buffer. After five minutes of incubation, the lysed cells were scraped off and loaded onto a cell lysate homogenizer microcentrifuge spin-column (QIAshredder, Qiagen, Cat.-Nr. 79656). The filtrate was then loaded onto a 0.2 μm centrifugal filter column (Nanosep MF 0.2_m, Pall, Cat.-Nr. ODM02C34). The lysates were then stored at −80° C.
In general terms: In western blotting, separated proteins are transferred to a membrane and probed.

In series [6] the test system is U2OS cells. The series is described as follows: Cell death and growth assay, U2OS cells. It is filed as cell-based. The method, then:
U20S and all other cells were grown in (RPMI) supplemented with 10% fetal bovine serum (FBS) and antibiotics. Imaging and time-lapse compatible NucLight red cell lines were generated as recommend by Essen Bioscience Inc. using lentiviral particles, infection and puromycin selection protocols.
The results were compared back to a prediction of cell growth and death with the combination of the two compounds (FIG. 18A).
In all cases, relative cell proliferation is reduced with the combinations compared to the drugs alone (FIG. 21B-C).

Series [7] has as its system NCI-H520 cells. Put plainly: Cell number over time, NCI-H520 cells. Type of series: cell-based. The note with it: 1 μM in combination with SN38 0.2 μM.
Series [8] relates to NCI-H596 cells. The series is described as follows: Cell number over time, NCI-H596 cells. Type of series: cell-based. The note with it: 1 μM in combination with SN38 0.2 μM.
Series [9] relates to MS-751 cells. Put plainly: In vitro growth assay, MS-751 cells. The note with it: in combination with SN38. It is filed as cell-based.
Series [10] deals with SUM149 cells. The series is described as follows: Cell cycle stage profile, SUM149 cells. It is filed as cell-based. The note with it: 24 hours after addition of SN38 and ATR inhibitor.

ATR/ATRIP(h), sequence (Q13535 whole entry): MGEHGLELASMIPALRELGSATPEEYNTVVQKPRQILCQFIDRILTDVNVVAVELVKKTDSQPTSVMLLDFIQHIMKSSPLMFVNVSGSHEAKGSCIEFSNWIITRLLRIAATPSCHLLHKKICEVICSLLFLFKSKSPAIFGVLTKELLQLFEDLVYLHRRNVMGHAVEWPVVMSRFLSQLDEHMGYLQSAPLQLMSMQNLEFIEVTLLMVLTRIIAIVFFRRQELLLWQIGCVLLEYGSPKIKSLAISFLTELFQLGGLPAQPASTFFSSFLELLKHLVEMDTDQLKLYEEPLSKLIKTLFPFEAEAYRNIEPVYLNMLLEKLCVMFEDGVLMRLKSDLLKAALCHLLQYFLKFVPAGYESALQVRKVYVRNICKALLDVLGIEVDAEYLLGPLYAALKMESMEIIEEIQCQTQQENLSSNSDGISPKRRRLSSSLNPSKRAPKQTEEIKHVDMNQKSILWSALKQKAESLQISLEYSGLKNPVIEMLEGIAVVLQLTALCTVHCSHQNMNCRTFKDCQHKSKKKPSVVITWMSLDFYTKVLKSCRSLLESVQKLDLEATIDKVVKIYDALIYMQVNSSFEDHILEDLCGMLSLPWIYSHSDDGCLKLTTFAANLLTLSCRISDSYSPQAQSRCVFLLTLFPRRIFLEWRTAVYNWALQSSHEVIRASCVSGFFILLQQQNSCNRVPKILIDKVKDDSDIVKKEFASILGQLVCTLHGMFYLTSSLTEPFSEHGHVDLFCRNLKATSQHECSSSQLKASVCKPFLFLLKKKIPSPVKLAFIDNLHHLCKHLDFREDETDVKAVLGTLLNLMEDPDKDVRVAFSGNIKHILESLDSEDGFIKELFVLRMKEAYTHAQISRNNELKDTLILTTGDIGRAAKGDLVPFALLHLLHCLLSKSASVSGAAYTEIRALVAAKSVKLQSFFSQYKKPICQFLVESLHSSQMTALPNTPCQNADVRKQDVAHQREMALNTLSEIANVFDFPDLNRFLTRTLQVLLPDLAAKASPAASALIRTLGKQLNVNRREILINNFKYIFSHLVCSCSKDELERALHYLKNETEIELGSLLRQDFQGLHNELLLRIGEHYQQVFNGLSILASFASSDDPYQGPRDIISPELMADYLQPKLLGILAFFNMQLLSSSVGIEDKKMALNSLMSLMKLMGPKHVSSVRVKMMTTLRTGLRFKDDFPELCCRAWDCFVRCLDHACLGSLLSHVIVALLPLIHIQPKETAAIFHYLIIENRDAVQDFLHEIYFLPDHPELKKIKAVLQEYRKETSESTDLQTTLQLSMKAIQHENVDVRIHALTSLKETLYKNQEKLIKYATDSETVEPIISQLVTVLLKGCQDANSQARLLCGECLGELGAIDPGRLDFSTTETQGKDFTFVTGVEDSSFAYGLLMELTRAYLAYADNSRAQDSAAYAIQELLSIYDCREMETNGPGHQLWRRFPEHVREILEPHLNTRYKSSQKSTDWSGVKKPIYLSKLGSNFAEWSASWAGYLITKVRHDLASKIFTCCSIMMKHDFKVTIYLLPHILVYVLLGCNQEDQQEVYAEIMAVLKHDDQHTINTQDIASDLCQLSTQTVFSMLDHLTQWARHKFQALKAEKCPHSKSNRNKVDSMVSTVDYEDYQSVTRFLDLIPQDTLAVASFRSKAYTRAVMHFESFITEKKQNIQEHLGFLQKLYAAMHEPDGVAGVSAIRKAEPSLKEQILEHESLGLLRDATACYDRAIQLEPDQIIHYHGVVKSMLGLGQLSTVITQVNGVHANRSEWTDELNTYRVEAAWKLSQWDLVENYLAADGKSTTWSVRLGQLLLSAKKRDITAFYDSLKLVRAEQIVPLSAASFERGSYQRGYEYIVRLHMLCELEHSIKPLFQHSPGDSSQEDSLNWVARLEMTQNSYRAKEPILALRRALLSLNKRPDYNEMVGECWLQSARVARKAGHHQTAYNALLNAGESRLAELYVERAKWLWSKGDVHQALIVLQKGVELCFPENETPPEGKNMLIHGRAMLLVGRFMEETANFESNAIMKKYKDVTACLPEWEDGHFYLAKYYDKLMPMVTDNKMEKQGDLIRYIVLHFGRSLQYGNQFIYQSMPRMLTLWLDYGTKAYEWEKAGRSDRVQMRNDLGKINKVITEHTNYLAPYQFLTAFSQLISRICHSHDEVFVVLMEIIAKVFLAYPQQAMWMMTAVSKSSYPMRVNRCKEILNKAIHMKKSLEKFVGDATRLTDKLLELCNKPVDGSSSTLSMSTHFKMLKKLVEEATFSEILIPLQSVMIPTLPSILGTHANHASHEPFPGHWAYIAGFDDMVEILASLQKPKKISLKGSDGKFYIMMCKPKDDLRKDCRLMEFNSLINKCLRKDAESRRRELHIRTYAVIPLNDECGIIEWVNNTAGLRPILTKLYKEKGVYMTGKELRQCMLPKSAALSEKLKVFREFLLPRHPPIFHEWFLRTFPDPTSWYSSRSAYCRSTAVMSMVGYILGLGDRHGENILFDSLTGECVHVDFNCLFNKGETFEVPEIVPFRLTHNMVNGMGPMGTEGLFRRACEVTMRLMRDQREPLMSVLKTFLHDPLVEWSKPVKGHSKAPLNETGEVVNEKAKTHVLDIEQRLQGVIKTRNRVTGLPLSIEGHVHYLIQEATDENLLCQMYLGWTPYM
ATR/ATRIP(h), sequence (Q8WXE1 whole entry partner): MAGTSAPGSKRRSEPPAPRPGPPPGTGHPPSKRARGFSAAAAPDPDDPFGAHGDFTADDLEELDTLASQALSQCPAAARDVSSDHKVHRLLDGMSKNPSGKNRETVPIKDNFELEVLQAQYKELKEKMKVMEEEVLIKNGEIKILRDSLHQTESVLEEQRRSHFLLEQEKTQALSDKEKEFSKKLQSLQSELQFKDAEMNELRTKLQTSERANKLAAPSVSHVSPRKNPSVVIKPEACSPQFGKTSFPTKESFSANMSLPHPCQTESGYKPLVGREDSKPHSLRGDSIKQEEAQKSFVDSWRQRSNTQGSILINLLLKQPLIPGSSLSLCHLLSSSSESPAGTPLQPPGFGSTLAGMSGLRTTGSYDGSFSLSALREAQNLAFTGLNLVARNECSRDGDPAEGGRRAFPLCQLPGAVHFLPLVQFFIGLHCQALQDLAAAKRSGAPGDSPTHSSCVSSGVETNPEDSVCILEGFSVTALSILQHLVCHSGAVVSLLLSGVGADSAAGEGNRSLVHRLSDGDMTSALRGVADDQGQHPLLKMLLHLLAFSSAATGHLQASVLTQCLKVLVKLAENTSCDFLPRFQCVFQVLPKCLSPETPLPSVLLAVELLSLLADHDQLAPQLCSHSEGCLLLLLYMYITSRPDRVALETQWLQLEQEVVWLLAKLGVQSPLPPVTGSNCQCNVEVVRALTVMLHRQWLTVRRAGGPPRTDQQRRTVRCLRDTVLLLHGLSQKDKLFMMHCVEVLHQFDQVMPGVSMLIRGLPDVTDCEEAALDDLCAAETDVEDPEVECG

Regarding `CCN(CC)C1CCN(CCS(=O)(=O)c2ccc(-c3cnc(N)c(C(=O)Nc4ccccc4)n3)cc2)CC1` [Compound 6, 3-amino-6-(4-((2-(4-(diethylamino)piperidin-1 yl)ethyl)sulfonyl)phenyl)-N-phenylpyrazine-2-carboxamide], in [1], the pKa (as a rule, the pH at which an ionisable group is half protonated) is 9.81. Moreover, in series [2], the “Loading efficiency (%)” value is 74 ± 0.3%; the “Drug/lipid ratio after loading” value was 550 ± 64; the “Liposome size, (mean ± SD) nm” value amounted to 119 ± 28 nm. In series [3], the EC50 (in general, the concentration at which the effect is half-maximal) is 471 nM; the Hill is on record as −0.768; the Bottom is recorded as −2; the Top is given as 101. Besides, the IC50 – broadly, the concentration at which inhibition is half-maximal – in series [4] is > 10000 nM.

For `CN1CCN(CCS(=O)(=O)c2ccc(-c3cnc(N)c(C(=O)Nc4ccccc4)n3)cc2)CC1` [Compound 3, 3-amino-6-(4-((2-(4-methylpiperazin-1-yl)ethyl)sulfonyl)phenyl)-N-phenylpyrazine-2-carboxamide], in series [1], the pKa amounted to 7.73. Besides, in [2], the “Loading efficiency (%)” value stood at 97 ± 5%; the “Drug/lipid ratio after loading” value is on record as 628 ± 6; the “Liposome size, (mean ± SD) nm” value was 120 ± 27 nm. In series [3], it took 196 nM to reach a half-maximal effect (EC50), the Hill is on record as −0.776, the Bottom was −3 and the Top was 98. Further, the IC50 in series [4] was > 10000 nM.

On to `CC(CN(C)C)S(=O)(=O)c1ccc(-c2cnc(N)c(C(=O)Nc3ccccc3)n2)cc1` (stereo not shown) [Compound 1, 3-amino-6-(4-((1-(dimethylamino)propan-2-yl)sulfonyl)phenyl)-N-phenylpyrazine-2-carboxamide], for which the pKa in [1] came to 7.04. The loading efficacy entry in series [2] (Compound 1: at drug to lipid ratio higher than 400 g/mol) is “formed aggregates”. Further, in series [2], the “Loading efficiency (%)” value is on record as 98%; the “Drug/lipid ratio after loading” value worked out at 369; the “Liposome size, (mean ± SD) nm” value stood at 122 ± 24 nm. In [2] (drug/lipid ratio before loading 600-800), the “Drug/lipid ratio after loading (loadability)” value is on record as “Not loadable. Formed aggregates”. Further, in series [3], the EC50 is 49.6 nM, the Hill is −0.772, the Bottom was −1 and the Top stood at 95. For the same compound, the IC50 in series [4] is 3860 nM.

For `CCN(CC)CCS(=O)(=O)c1ccc(-c2cnc(N)c(C(=O)Nc3ccccc3)n2)cc1` [Compound 2, 3-amino-6-(4-((2-(diethylamino)ethyl)sulfonyl)phenyl)-N phenylpyrazine-2-carboxamide], in series [1], the pKa turned out to be 7.46. In series [2], the “Loading efficiency (%)” value turned out to be 100 ± 5%; the “Drug/lipid ratio after loading” value was 639 ± 22; the “Liposome size, (mean ± SD) nm” value came out at 130 ± 34 nm. In addition, in series [3], a half-maximal effect (EC50) was put at 140 nM, the Hill is reported as −0.911, the Bottom came to 1 and the Top was determined as 94. Also, in series [4], the half-maximal inhibitory concentration (IC50) was 4820 nM.

The compound `CN(C)CCNS(=O)(=O)c1ccc(-c2cnc(N)c(C(=O)Nc3ccccc3)n2)cc1` [Compound 4, 3-amino-6-(4-(((2-(dimethylamino)ethyl)-λ^2-azanyl)sulfonyl)phenyl)-N-phenylpyrazine-2-carboxamide] came in with a pKa in [1] of 8.36. In addition, the EC50 in [3] was 353 nM. For the same compound, in series [4], the IC50 was 6870 nM.

For `Nc1ccn([C@@H]2O[C@H](CO)[C@@H](O)C2(F)F)c(=O)n1` [Gemcitabine], the “phospho-CHK1 (S317 and S345) signaling” value in series [5] (Gemcitabine 16 nM alone, over 24 hrs) is listed as “significantly increased”.

Take `CNCc1ccc(-c2cc(-c3nc(-c4ccc(S(=O)(=O)C(C)C)cc4)cnc3N)on2)cc1` [Compound A]: the “Liposome size, (mean ± SD) nm” value in series [2] came to 121 ± 26 nm. In series [4], the IC50 is 42 nM. In addition, the “phosphorylation signal of CHK1 (S317 and S345) induced by Gemcitabine” value in series [5] (ATR inhibitor 1 μM added to Gemcitabine 16 nM) is “abrogates the phosphorylation signal of CHK1”. In addition, the “total and phospho-ATR signal” value in series [5] (ATR inhibitor 1 μM, alone or with Gemcitabine 16 nM, up to 24 hrs) is on record as “strongly reduced”. In addition, the “cell numbers over time vs either agent in isolation” value in series [6] (1 μM in combination with SN38 0.2 μM), in [7] and in series [8] was “more effective at maintaining or reducing cell numbers over time” in each case. Also, in series [6] (Compound A (1 μM) combined with Gemcitabine (0.04 μM)), the “cell death vs either compound alone” value is “better at promoting cell death”. The “cell number over time vs either compound alone” value in series [9] was “reduction in cell number over time”. In [10], the “cell cycle stage profile vs controls” value is “larger percentage of cells are arrested in G2 phase”.

The values above are taken from patent US11787781B2, “Inhibiting ataxia telangiectasia and RAD3-related protein (ATR)” (Celator Pharmaceuticals, Inc., priority 2016, dated 2023).
